Laboratory results from article PMC6941357, “An in vitro toolbox to accelerate anti-malarial drug discovery and development” (Malaria Journal, 2020).
Read-outs that look alike come from different tables or passages of the source.

Tests used:
[1] = Bidirectional permeability across Caco-2 cell monolayers; conditions: human
Description: (§1) Bidirectional permeability was assessed across Caco-2 cell monolayers as described previously. Briefly, permeability experiments were performed using either aqueous transport buffer (pH 7.4 Hanks balanced salt solution containing 20 mM HEPES) or human plasma (Australian Red Cross Blood Service) in both the apical and basolateral chambers. […] The final DMSO concentration in the donor solution was 0.1% v/v.
(§2) Samples from the donor chamber were taken at the start and end of the experiment. […] Donor and acceptor samples were stored frozen at − 80 °C until analysis by LC–MS (Additional file 1: Table S2) with sample preparation as described previously. The mass balance and apparent permeability coefficient (Papp) were calculated as previously described.
(§3) Where human plasma was used as the transport medium, Papp values were calculated as shown above, with correction for the fraction unbound (fu) in the donor solution Cdonorinitial×fu with fu determined at a similar concentration to that used in the transport experiment. The apparent flux of lucifer yellow was based on an endpoint measurement assuming no lag time. The efflux ratio was calculated as the ratio of the mean B–A to A–B Papp values.

[2] = Binding in DMEM with 10% FCS via ultracentrifugation; assay type: in vitro ADME, calf; conditions: bovine, pH 7.4
Description: Dulbecco’s Modified Eagle’s Medium (DMEM) containing GlutaMAX-I was purchased from Invitrogen (Thermo Fisher Scientific) and stored at 4 °C. Medium was prepared by adding heat inactivated foetal calf serum (FCS, final 10% v/v), penicillin (final 100 U/mL), streptomycin (final 100 µg/mL) D-glucose (final 4.0 mg/mL) and sodium pyruvate (final 0.1 mg/mL).
An ultracentrifugation method adapted from a previous publication was initially used to assess plasma protein binding and binding in the other media. […] Additional ultracentrifuge tubes containing spiked matrix were maintained at 37 °C, 5% or 10% CO2 or normal atmosphere conditions, with aliquots being taken within 0.5 h of the start and at the end of ultracentrifugation to serve as controls for the assessment of stability and to obtain a measure of the total concentration (Ctotal). Following ultracentrifugation, the pH was checked and an aliquot of protein-free supernate was taken from each ultracentrifuge tube for determination of the unbound concentration (Cunbound).
Total matrix and protein free samples were analysed using a matrix matching approach whereby each sample was mixed in a 1:1 ratio with the opposite blank medium (i.e. blank total matrix or blank protein free buffer). For example, plasma samples were mixed with blank pH 7.4 buffer whereas plasma supernatant samples were mixed with blank plasma. Each of the sample sets were then assayed against a common calibration curve prepared in a 1:1 mixture of total matrix and protein free pH 7.4 buffer. […] The standard deviation for fu was calculated using the propagation of errors approach as described previously. The potential for compound degradation was assessed by comparing the average value for Ctotal at the start and end of the experiment.

[3] = Blood to plasma partitioning; assay type: in vitro ADME, human; conditions: 37 °C; for blood plasma ratio at 1000 ng/mL: human, whole blood, pH 7.4, human whole blood, read-out: B/P (whole blood to plasma partitioning ratio)
Description: Human whole blood was collected and supplied by the Volunteer Blood Donor Registry (Clinical Translation Centre, Walter & Eliza Hall Institute of Medical Research, Parkville, Australia) and used on the day of collection. The haematocrit (Hct) was determined by centrifugation (13,000×g for 3 min using Clemets® Microhaematocrit centrifuge and Safecap® Plain Self-sealing Mylar wrapped capillary tubes) to ensure it was between 0.40 and 0.48. An aliquot was centrifuged (Heraeus, Multifuge 3 S-R; 4500×g) for 10 min to obtain plasma required for matrix matching purposes as described below.
Two aliquots of the spiked whole blood were transferred to fresh microcentrifuge tubes and maintained at 37 °C/5% CO2 in a humidified incubator. The pH was confirmed to be 7.4 ± 0.1 at the start and end of the incubation. At each time point (30 min and 4 h), one whole blood tube was removed from the incubator and mixed by gentle inversion, after which four replicate blood samples were taken and matrix matched with an equal volume of blank plasma. The remainder of the blood sample was centrifuged (Eppendorf, Mini Spin plus; 6700×g) for 2 min for the collection of 4 replicate plasma samples which were similarly matrix matched with an equal volume of blank whole blood. The 1:1 mixtures of blood/plasma were mixed, snap frozen in dry ice and stored at − 80 °C until analysis by LC–MS (Additional file 1: Table S2) against calibration standards prepared in the same mixed matrix. Any further distribution of compound into RBCs at this stage was irrelevant as the cells were lysed during the sample preparation and the total concentration in the mixed matrix was measured for both the calibration standards and samples.
The apparent whole blood-to-plasma partitioning ratio (B/P) was calculated as the ratio of the average concentration in the blood sample to that in the plasma fraction of the same whole blood sample. A standard deviation (SD) for each B/P value was calculated using the propagation of errors approach as described previously.

Caco-2 cell monolayers [4] = test: Bidirectional permeability across Caco-2 cell monolayers; conditions: matrix: pH 7.4 buffer
Description: as §1, §2, §3

Caco-2 cell monolayers [5] = conditions: cited from earlier work; for Literature ER: Caco-2, ref [33], [35] of Additional file 1; for Literature Papp: Caco-2 A-B, ref [33]–[35] of Additional file 1
[6] = Plasma protein binding via rapid equilibrium dialysis (RED), 10% plasma; assay type: in vitro ADME, human; conditions: human, 10% pooled plasma (diluted 1:10), pH 7.4, RED, 10% plasma corrected for dilution; for fraction unbound at 6 h: 6 h dialysis; for fraction unbound at 24 h: presaturation of device and 24 h dialysis
Description: Pooled human plasma (n = 3–4 donors) was obtained by centrifugation of blood (collected by the Australian Red Cross Blood Service, Melbourne, Australia or the Volunteer Blood Donor Registry, Clinical Translation Centre, Walter & Eliza Hall Institute of Medical Research, Parkville, Australia), or sourcing pooled plasma directly from commercial sources (Innovative Research Inc, MI) and stored frozen at − 80 °C.
Plasma was diluted 1:10 with pH 7.4 phosphate buffer (prepared by mixing 0.1 M sodium dihydrogen phosphate and 0.1 M disodium hydrogen phosphate (both containing 0.04 M NaCl) to pH 7.4) and spiked with compound to achieve a total measured concentration of ~ 1000–3000 ng/mL. Diluted plasma was vortex mixed briefly and aliquots (n = 3–4) were transferred to RED (Thermo Fisher Scientific, Waltham, MA) units that were placed at 37 °C under ambient atmosphere on a plate shaker. […] At the end of the dialysis period, samples were removed from both the donor and dialysate chambers of the RED units. […] Fraction unbound values were calculated for each individual RED unit and the mean and SD calculated for n = 3–4 replicates.
Briefly, the RED device was exposed for two 30 min periods and one overnight period to fresh solutions of compound prepared in pH 7.4 buffer at approximately 10% of the total dialysis concentration. Following the preincubations, solutions were removed from the RED device and discarded. […] Samples were removed and analysed as described above.
For binding assessments using 10% plasma, the unbound fraction (fu) in neat plasma was calculated using the average values for Ctotal and Cunbound and Eq.

[7] = Caco-2, A–B Papp, matrix: human plasma, corrected for fu
[8] = Caco-2, pH 7.4, A–B Papp, matrix: pH 7.4 buffer
[9] = matrix: human plasma, corrected for fu

CC1(C)c2nc(-c3ccc(F)cc3)c(Nc3ccc(F)cc3)n2CCN1C(=O)CN [KAF156]
Papp B→A ([1]; Caco-2): 2300 ± 170 nm/s
Papp A→B [1, 7]: 470 ± 76 nm/s
fraction unbound at […], 1000 ng/mL ([2]; DMEM with 10% FCS): 0.477 ± 0.032

CC(C)NC(=N)NC(=N)Nc1ccc(Cl)c(Cl)c1 [Chlorproguanil]
Papp B→A ([1]; Caco-2): 610 ± 74 nm/s
efflux ratio ([1]; Caco-2): 3.2
Papp A→B [1, 7]: 190 ± 30 nm/s
B/P (whole blood to plasma partitioning ratio) ([3]; human whole blood): 3.3 ± 0.38
blood plasma ratio at 1000 ng/mL [3]: > 3

C[C@H]1[C@H](OC(=O)CCC(=O)O)O[C@@H]2O[C@@]3(C)CC[C@H]4[C@H](C)CC[C@@H]1[C@@]24OO3 [Artesunate]
Papp B→A ([1]; Caco-2, pH 7.4): 28 ± 4.8 nm/s
Papp A→B [1, 8]: 34 nm/s
A–B Papp (Caco-2 cell monolayers [4]): 2.9 10^−6 cm/s
fraction unbound at […], 1000 ng/mL ([2]; DMEM with 10% FCS): 0.72 ± 0.026
Literature ER (Caco-2 cell monolayers [5]): 1.2

C[C@H]1Cc2c([nH]c3cc(Cl)c(F)cc23)[C@@]2(N1)C(=O)Nc1ccc(Cl)cc12 [KAE609]
Papp B→A ([1]; Caco-2): > 3000 nm/s
Papp A→B [1, 7]: > 3000 nm/s
fraction unbound at 6 h [6]: 0.002
fraction unbound at 24 h [6]: 0.0016 ± 0.0001
blood plasma ratio at 1000 ng/mL [3]: 0.66 ± 0.04

CO[C@H]1O[C@@H]2O[C@@]3(C)CC[C@H]4[C@H](C)CC[C@@H]([C@H]1C)[C@@]24OO3 [Artemether]
Papp B→A ([1]; Caco-2, pH 7.4): 420 ± 56 nm/s
Papp A→B [1, 8]: 391 nm/s
A–B Papp (Caco-2 cell monolayers [4]): 46.3 10^−6 cm/s
fraction unbound at 24 h [6]: 0.066

COc1ccc2nc3cc(Cl)ccc3c(Nc3cc(CN4CCCC4)c(O)c(CN4CCCC4)c3)c2n1 [Pyronaridine]
Papp B→A ([1]; Caco-2): 410 ± 30 nm/s
efflux ratio ([1]; Caco-2): 2.6
Papp A→B [1, 7]: 160 ± 22 nm/s
fraction unbound at 6 h [6]: 0.09 ± 0.012
blood plasma ratio at 1000 ng/mL [3]: 9 ± 0.83
Literature ER (Caco-2 cell monolayers [5]): 1.8
Literature Papp (Caco-2 cell monolayers [5]): 10.3 ± 0.3 10-6 cm/sec

CCc1nc(N)nc(N)c1-c1ccc(Cl)cc1 [Pyrimethamine]
Papp A→B ([1]; Caco-2, pH 7.4): 600 ± 56 nm/s
Papp B→A ([1]; Caco-2, pH 7.4): 590 ± 29 nm/s
fraction unbound at 6 h [6]: 0.095 ± 0.001
fraction unbound at […], 1000 ng/mL ([2]; DMEM with 10% FCS): 0.48 ± 0.034

COc1cc(NC(C)CCCN)c2ncccc2c1 (stereo not shown) [Primaquine]
Papp A→B ([1]; Caco-2, pH 7.4): 290 ± 45 nm/s
Papp B→A ([1]; Caco-2, pH 7.4): 340 ± 15 nm/s
fraction unbound at […], 1000 ng/mL [2]: 0.78 ± 0.025

CCNCc1cc(Nc2ccnc3cc(Cl)ccc23)ccc1O [Desethylamodiaquine]
blood plasma ratio at 1000 ng/mL [3]: 3.26 ± 0.35

O=C1C(O)=C([C@H]2CC[C@H](c3ccc(Cl)cc3)CC2)C(=O)c2ccccc21 [Atovaquone]
fraction unbound at 24 h [6]: < 0.0001
A–B Papp (Caco-2 cell monolayers [5]; [9]): > 300 10^−6 cm/s
B–A Papp (Caco-2 cell monolayers [5]; [9]): > 300 10^−6 cm/s

C[C@H]1[C@H](N2CCS(=O)(=O)CC2)O[C@@H]2O[C@@]3(C)CC[C@H]4[C@H](C)CC[C@@H]1[C@@]24OO3 [Artemisone]
Papp B→A ([1]; Caco-2, pH 7.4): 470 ± 17 nm/s
efflux ratio ([1]; Caco-2, pH 7.4): 0.8
Papp A→B [1, 8]: 588 nm/s
A–B Papp (Caco-2 cell monolayers [4]): 64.5 10^−6 cm/s
Literature ER (Caco-2 cell monolayers [5]): 0.8
Literature Papp (Caco-2 cell monolayers [5]): 59.6 ± 4.2 10-6 cm/sec
